Columns and labels:
LNCaP cells = test: Proliferation inhibition of LNCaP cells (CCK-8); format: cell-based; conditions: Homo sapiens, 144 h, cultured 3 + 3 days, CCK-8, OD at 450 nm
Protocol: The following in vitro assay was performed to determine the activity of the compounds of the present invention for inhibiting the proliferation of LNCaP cells.
(1). Cell counting reagent CCK-8 (DOJINDO, CK04)
See experimental procedure from Test Example 1.
After LNCaP cells were cultured for 3 days, the culture medium, test compounds, blank group, and control group were renewed with half of the liquid volume, and were cultured for another 3 days. Then, all 96-well plates were mixed gently with 10 μl of CCK-8 and cultured in an incubator for 2-3 hours under the conditions of 37° C. and 5% CO2. The OD value per well was measured at 450 nm on a Victor3 microplate reader.
(§1) IC50 values were calculated from the data of the inhibition rates of the test compounds at various concentrations.

[1] = tested on: PSA secretion of LNCaP cells; test: Inhibitory activity on PSA secretion of LNCaP cells; format: cell-based; conditions: Homo sapiens, 96 h; LNCaP cells, 1 nM testosterone medium, 4 days of incubation, PSA kit OD450; read-out: IC50 (inhibition of PSA secretion of LNCaP cells)
Protocol: The following in vitro assay was performed to determine the activity of the compounds of the present invention for inhibiting prostate specific antigen (PSA) secretion of LNCaP cells.
(11). Testosterone culture medium: RIPM 1640 culture medium, 10% CS-FBS, 1% Pen Strep, 1 nM testosterone
LNCaP cells were subcultured in cell culture medium, resuspended in active carbon culture medium, and then inoculated into a 96-well plate (100 μl/well) with an inoculation density of 5×10^4 cells/well.
The test compounds were dissolved in DMSO (dimethyl sulfoxide) and prepared as a 10 mM stock solution. When used, the stock solution was diluted with 5×DMSO and then diluted with a threefold gradient to obtain 8 gradient concentrations. Then, the 8 gradient concentrations were each diluted with 20× testosterone culture medium, in order to ensure DMSO concentration in each culture system was 0.5%. Diluted test compounds remained to be tested.
10 μl of diluted test compounds were added to a 96-well plate and mixed gently. 10 μl of 0.5% DMSO diluted with active carbon culture medium was added to the blank group, and 10 μl of 0.5% DMSO diluted with testosterone culture medium was added to the control group. The 96-well plate was cultured in an incubator under the conditions of 37° C. and 5% CO2.
After 4 days of incubation, 60 μl of cell cultural supernatants were collected, and the OD450 value per well was measured on a NOVO Star microplate reader using PSA kit (Abnova, KA0208).
as §1

Structure (SMILES)	IC50 (LNCaP cells)	IC50 [1]
CC1(C)C(=O)N(c2ccc(C#N)c(C(F)(F)F)c2)C(=S)N1c1ccc(OCC2CCOC2)nc1 (stereo not shown) [Example 25, 4-(4,4-Dimethyl-5-oxo-3-(6-((tetrahydrofuran-3-yl)methoxy)pyridin-3-yl)-2-thioxoimidazolidin-1-yl)-2-(trifluoromethyl)benzonitrile]	111 nM	31 nM
CC1(C)C(=O)N(c2ccc(C#N)c(C(F)(F)F)c2)C(=S)N1c1ccc(OC2CCNC2)c(F)c1 (stereo not shown) [Example 28, 4-(3-(3-Fluoro-4-((pyrrolidin-3-yl)oxy)phenyl)-4,4-dimethyl-5-oxo-2-thioxoimidazolidin-1-yl)-2-(trifluoromethyl)benzonitrile]	79 nM	82 nM
CNC(=O)COc1ccc(N2C(=S)N(c3ccc(C#N)c(C(F)(F)F)c3)C(=O)C2(C)C)cc1F [Example 32, 2-(4-(3-(4-Cyano-3-(trifluoromethyl)phenyl)-5,5-dimethyl-4-oxo-2-thioxoimidazolidin-1-yl)-2-fluorophenoxy)-N-methylacetamide]	134 nM	110 nM
CNC(=O)c1ccccc1Oc1ccc(N2C(=S)N(c3ccc(C#N)c(C(F)(F)F)c3)C(=O)C2(C)C)cc1F [Example 26, 2-(4-(3-(4-Cyano-3-(trifluoromethyl)phenyl)-5,5-dimethyl-4-oxo-2-thioxoimidazolidin-1-yl)-2-fluorophenoxy)-N-methylbenzamide]	201 nM	44 nM
CN1CCC(Oc2ccc(N3C(=S)N(c4ccc(C#N)c(C(F)(F)F)c4)C(=O)C3(C)C)cc2F)CC1 [Example 20, 4-(3-(3-Fluoro-4-((1-methylpiperidin-4-yl)oxy)phenyl)-4,4-dimethyl-5-oxo-2-thioxoimidazolidin-1-yl)-2-(trifluoromethyl)benzonitrile]	156 nM	57 nM
CC1(C)C(=O)N(c2ccc(C#N)c(C(F)(F)F)c2)C(=S)N1c1ccc(OCC2(O)CC2)c(F)c1 [Example 5, 4-(3-(3-Fluoro-4-((1-hydroxycyclopropyl)methoxy)phenyl)-4,4-dimethyl-5-oxo-2-thioxoimidazolidin-1-yl)-2-(trifluoromethyl)benzonitrile]	87 nM	124 nM
CC1(C)C(=O)N(c2ccc(C#N)c(C(F)(F)F)c2)C(=S)N1c1ccc(O[C@H]2CCOC2)nc1 [Example 24, (S)-4-(4,4-Dimethyl-5-oxo-3-(6-((tetrahydrofuran-3-yl)oxy)pyridin-3-yl)-2-thioxoimidazolidin-1-yl)-2-(trifluoromethyl)benzonitrile]	92 nM	32 nM
CNC(=O)C1(COc2ccc(N3C(=S)N(c4ccc(C#N)c(C(F)(F)F)c4)C(=O)C3(C)C)cc2F)CC1 [Example 34, 1-((4-(3-(4-Cyano-3-(trifluoromethyl)phenyl)-5,5-dimethyl-4-oxo-2-thioxoimidazolidin-1-yl)-2-fluorophenoxy)methyl)-N-methylcyclopropanecarboxamide]	159 nM	51 nM
CC1(C)C(=O)N(c2ccc(C#N)c(C(F)(F)F)c2)C(=S)N1c1ccc(O[C@@H]2CCOC2)c(F)c1 [Example 1, (R)-4-(3-(3-Fluoro-4-((tetrahydrofuran-3-yl)oxy)phenyl)-4,4-dimethyl-5-oxo-2-thioxoimidazolidin-1-yl)-2-(trifluoromethyl)benzonitrile]	195 nM	34 nM
CC1(C)C(=O)N(c2ccc(C#N)c(C(F)(F)F)c2)C(=S)N1c1ccc(O[C@H]2CCOC2)c(F)c1 [Example 2, (S)-4-(3-(3-Fluoro-4-((tetrahydrofuran-3-yl)oxy)phenyl)-4,4-dimethyl-5-oxo-2-thioxoimidazolidin-1-yl)-2-(trifluoromethyl)benzonitrile]	97 nM	45 nM
CC1(C)C(=O)N(c2ccc(C#N)c(C(F)(F)F)c2)C(=S)N1c1ccc(OCC(O)CO)cc1 (stereo not shown) [Example 48, 4-(3-(4-(2,3-Dihydroxypropoxy)phenyl)-4,4-dimethyl-5-oxo-2-thioxoimidazolidin-1-yl)-2-(trifluoromethyl)benzonitrile]	281 nM	37 nM

— patent US9586947B2, “Imidazoline derivatives, preparation methods thereof, and their applications in medicine” (priority 2012, dated 2017)
